Patent US20140221354A1, “IMIDAZO [1,2-a]PYRIDINE COMPOUNDS FOR USE IN THERAPY” (EMBLEM Technology Transfer GmbH, priority 2011, published 2014)

System: CellSensor® HRE-bla HCT-116 stably transfected reporter cell line
Assay: HIF/HRE reporter assay
Format: cell-based
Conditions: Homo sapiens, inhibition of activated HIF signaling response, hypoxic conditions induced with deferoxamine (DFO), 24 h incubation, blue/green emission ratio, read-out: Evaluation
Procedure: Inhibition of an activated HIF signaling response under chemically-induced hypoxic conditions due to compound treatment was determined using the CellSensor® HRE-bla HCT-116 stably transfected reporter cell line from Invitrogen according to the manufacturer's instructions.
Cells were maintained as described previously and seeded into 384-well, clear-bottom plates (Corning 3712) at 15000 cells/well in 32 μl assay medium (Opti-MEM [Invitrogen], 0.5% FBS, 100 U/ml penicillin, 100 μg/ml streptomycin, 0.1 mM non-essential amino acids [NEAA], 1 mM sodium pyruvate, 5 mM HEPES [pH 7.3]). Following a 2 h incubation period, compounds (4 μl) were subsequently added to the cells at 10× concentrations in 5% DMSO and incubated under normal conditions for 30 min. To induce hypoxic conditions, 4 μl of a 2 mM deferoxamine (DFO) solution was added to the cells followed by 24 h incubation under standard assay conditions (as described). Control wells included wells containing only medium (no cells) and wells treated with 0.5% DMSO instead of compound.
Prior to the readout, the Substrate Loading Solution was prepared as described in the manufacturer's protocol and 10 μl added to each well. Following a further 2 h incubation period at room temperature and in the dark, fluorescence was measured at two wavelengths (blue channel: ex. 409 nm, em. 460 nm; green channel: ex. 409 nm, em. 530 nm) on a PerkinElmer Envision HTS. For the analysis, the average signal of the cell-free wells at 460 nm and 530 nm was first subtracted from the blue and green channel data, respectively. The blue/green emission ratios were then calculated for each well, dividing the background-corrected blue emission values by the background-corrected green emission values. […] values were determined from these ratios using GraphPad Prism (Prism 5, GraphPad software, Inc.).

| SMILES | EC50 |
| --- | --- |
| O=[N+]([O-])c1ccc(-c2nc3ccc(-c4ccccc4)cn3c2CN2CCNCC2)cc1 [Example 1, 2-(4-nitrophenyl)-6-phenyl-3-(piperazin-1-ylmethyl)imidazo[1,2-a]pyridine] | < 500 nM |
| CC(=O)N1CCN(Cc2c(-c3cccc([N+](=O)[O-])c3)nc3ccc(-c4ccccc4)cn23)CC1 [Example 2, 1-(4-((2-(3-nitrophenyl)-6-phenylimidazo[1,2-a]pyridin-3-yl)methyl)piperazin-1-yl)ethanone] | > 1000 nM |
| CC(=O)N1CCN(Cc2c(-c3ccc([N+](=O)[O-])cc3)nc3ccc(-c4ccccc4)cn23)CC1 [Example 3, 1-(4-((2-(4-nitrophenyl)-6-phenylimidazo[1,2-a]pyridin-3-yl)methyl)piperazin-1-yl)ethanone] | 500 to 1000 nM |
| O=[N+]([O-])c1ccc(-c2nc3ccc(-c4ccccc4)cn3c2CN2CCCNCC2)cc1 [Example 4, 3-((1,4-diazepan-1-yl)methyl)-2-(4-nitrophenyl)-6-phenylimidazo[1,2-a]pyridine] | < 500 nM |
| CCCN1CCN(Cc2c(-c3ccc([N+](=O)[O-])cc3)nc3ccc(-c4ccccc4)cn23)CC1 [Example 5, 2-(4-nitrophenyl)-6-phenyl-3-((4-propylpiperazin-1-yl)methyl)imidazo[1,2-a]pyridine] | 500 to 1000 nM |
| CCN1CCN(Cc2c(-c3ccc([N+](=O)[O-])cc3)nc3ccc(-c4ccccc4)cn23)CC1 [Example 6, 3-((4-ethylpiperazin-1-yl)methyl)-2-(4-nitrophenyl)-6-phenylimidazo[1,2-a]pyridine] | 500 to 1000 nM |
| CN1CCN(Cc2c(-c3ccc([N+](=O)[O-])cc3)nc3ccc(-c4ccccc4)cn23)CC1 [Example 7, 3-((4-methylpiperazin-1-yl)methyl)-2-(4-nitrophenyl)-6-phenylimidazo[1,2-a]pyridine] | < 500 nM |
| CS(=O)(=O)c1ccc(-c2nc3ccc(-c4ccccc4)cn3c2CN2CCCNCC2)cc1 [Example 8, 3-((1,4-diazepan-1-yl)methyl)-2-(4-(methylsulfonyl)phenyl)-6-phenylimidazo[1,2-a]pyridine] | > 1000 nM |
| N#Cc1ccc(-c2nc3ccc(-c4ccccc4)cn3c2CN2CCCNCC2)cc1 [Example 9, 4-(3-((1,4-diazepan-1-yl)methyl)-6-phenylimidazo[1,2-a]pyridin-2-yl)benzonitrile] | < 500 nM |
| NC(=O)c1ccc(-c2nc3ccc(-c4ccccc4)cn3c2CN2CCCNCC2)cc1 [Example 10, 4-(3-((1,4-diazepan-1-yl)methyl)-6-phenylimidazo[1,2-a]pyridin-2-yl)benzamide] | > 1000 nM |

Next, values leading:

| EC50 | SMILES |
| --- | --- |
| < 500 nM | c1ccc(-c2ccc3nc(-c4ccncc4)c(CN4CCCNCC4)n3c2)cc1 [Example 11, 3-((1,4-diazepan-1-yl)methyl)-6-phenyl-2-(pyridin-4-yl)imidazo[1,2-a]pyridine] |
| < 500 nM | CN1CCCN(Cc2c(-c3ccc([N+](=O)[O-])cc3)nc3ccc(-c4ccccc4)cn23)CC1 [Example 12, 3-((4-methyl-1,4-diazepan-1-yl)methyl)-2-(4-nitrophenyl)-6-phenylimidazo[1,2-a]pyridine] |
| < 500 nM | O=C1CN(Cc2c(-c3ccc([N+](=O)[O-])cc3)nc3ccc(-c4ccccc4)cn23)CCN1 [Example 13, 4-((2-(4-nitrophenyl)-6-phenylimidazo[1,2-a]pyridin-3-yl)methyl)piperazin-2-one] |
| < 500 nM | Clc1ccc(-c2nc3ccc(-c4ccccc4)cn3c2CN2CCCNCC2)cc1 [Example 14, 3-((1,4-diazepan-1-yl)methyl)-2-(4-chlorophenyl)-6-phenylimidazo[1,2-a]pyridine] |
| < 500 nM | c1ccc(-c2ccc3nc(-c4cccnc4)c(CN4CCCNCC4)n3c2)cc1 [Example 15, 3-((1,4-diazepan-1-yl)methyl)-6-phenyl-2-(pyridin-3-yl)imidazo[1,2-a]pyridine] |
| 500 to 1000 nM | N#Cc1ccc(-c2nc3ccc(-c4ccccc4)cn3c2CN2CCCNCC2)cn1 [Example 16, 5-(3-((1,4-diazepan-1-yl)methyl)-6-phenylimidazo[1,2-a]pyridin-2-yl)picolinonitrile] |
